Experimental data as given in the NIST ThermoML archive (doi:10.1021/acs.jced.8b00566).
Numbers after ± are expanded uncertainties.

Experiments:
[1] = Crystal; DSC
[2] = Molar enthalpy of transition or fusion; settings: Crystal; DSC

| Triple point temperature [1] [K] | Molar enthalpy of transition or fusion [2] [kJ/mol] | Structure (SMILES) |
| --- | --- | --- |
| 419.3 ± 0.8 | 25.8 ± 1 | CC(=O)O[C@H]1CC[C@@]2(C)C(=CC[C@@H]3[C@@H]2CC[C@]2(C)C(c4cccnc4)=CC[C@@H]32)C1 [abiraterone acetate] |
| 501.4 ± 0.8 | 45.1 ± 1.2 | C[C@]12CC[C@H](O)CC1=CC[C@@H]1[C@@H]2CC[C@]2(C)C(c3cccnc3)=CC[C@@H]12 [abiraterone] |
